According to US20250179025A1, “CRYSTALLINE FORM OF DAROLUTAMIDE” (QUÍMICA SINTÉTICA, S.A., priority 2022, published 2025):
Converted amounts (≈) assume the structure as drawn. Where two headings read alike, the source gives them in different places. Blank lines part the entries; values can stand above or below the compound they belong to.

Columns and labels:
[1] = poorly soluble in the physiological pH range; cited from earlier work
[2] = values reported in WO 2018/162793 or by its applicant in annex 1 during European prosecution; cited from earlier work
[3] = Determination of specific surface area (SSA), multi-point nitrogen adsorption BET; format: physicochemical; conditions: samples vacuum dried overnight at 45° C.; relative pressure 0.05-0.3 p/p0; eleven linear points
Excerpt: The term “about” includes the range of experimental errors, which can normally occur performing a measurement, e.g. ±5% or ±2% or ±1%. Sometimes, such a range can lie within the experimental error, typical of standard methods used for the measurement and/or determination of a given value or range. Particularly, the measurement uncertainty for the Multi-Point B.E.T. specific surface area parameter is equal to 15% for a SSA value greater than 2 m^2/g, and 20% for a SSA less than 2 m^2/g. It is expressed as extended uncertainty obtained by multiplying standard uncertainty by the coverage factor k equal to 2, corresponding to confidence level of about 95%. The uncertainty is related to the method of analysis and obtained as percent value from the analysis of a representative group of samples in the measurement range of the instrument.
Unless otherwise indicated, the data relative to the peaks in the XRPD pattern are meant within the common uncertainty due to the instrument measurement, typically ±0.2 degrees 2θ, when collected with the Kα radiation of copper (λ=1.5419 Å) at room temperature. The present invention provides, in one aspect, a new form of N-[(2S)-1-[3-(3-chloro-4-cyanophenyl)-1H-pyrazol-1-yl]-propan-2-yl]-5-(1-hydroxyethyl)-1H-pyrazole-3-carboxamide (darolutamide), herein called nanocrystalline form or NC form or Form NC, said nanocrystalline form being characterized by having specific surface area (SSA) in the range from about 40 m^2/g to about 150 m^2/g, preferably from about 50 m^2/g to about 135 m^2/g, more preferably from about 60 m^2/g to about 135 m^2/g analyzed using the multi-point nitrogen adsorption technique based on the Brunauer, Emmett and Teller (BET) theory, for example using TriStar (II) automated gas adsorption analyzer, (Micromeritics, Inc.). The samples are suitably vacuum dried overnight at 45° C. The volumetric method can be used at the relative pressure range of 0.05-0.3 p/p0 as reported in the experimental part. Specific surface area is an important physical property for an active pharmaceutical ingredient. This parameter can greatly influence the process of preparation of drugs, such as filtration, purification, blending, tableting as well as the characteristics of the active pharmaceutical ingredient especially its dissolution rate and, in turn, its bio-availability as generally known in the art, e.g. from Kyung Rok Chu et al. Effect of particle size on the dissolution behaviours of poorly water-soluble drugs, Arch. Pharm. Res., 2012 July, 35(7), 1187-95, DOI 10.1007/s12272-012-0709-3.
The specific surface area was measured using the multi-point nitrogen adsorption technique based on the Brunauer, Emmett and Teller (BET) theory using TriStar (II) automated gas adsorption analyzer (Micromeritics, Inc.). All the samples were dried under vacuum overnight hours at 45° C. The volumetric method was applied at the relative pressure range 0.05-0.3 p/p^0, and the Specific Surface Area values were calculated in said pressure range using “Multi-Point BET” calculation method based on eleven linear points.

[4] = Stability study at 40° C. and 75% RH (HPLC purity, XRPD); format: physicochemical; conditions: double PE bag in HDPE bottle, 1, 3, 6 and 12 months
Procedure: 5 aliquots of about 1 g of nanocrystalline form of present invention were stored at the following conditions wherein RH is referred to relative humidity: • 40° C. and 75% RH, double PE bag in HDPE bottle
The sample were analysed before the storage (To), after 1 month, 3 months, 6 months and 12 months using high performance chromatography (HPLC) method to control the purity and X-ray powder diffractogram (XRPD) to evaluate any change in crystalline form.

Structure (SMILES): CC(O)c1cc(C(=O)N[C@@H](C)Cn2ccc(-c3ccc(C#N)c(Cl)c3)n2)[nH]n1 (stereo partly drawn) [darolutamide, N-[(2S)-1-[3-(3-chloro-4-cyanophenyl)-1H-pyrazol-1-yl]-propan-2-yl]-5-(1-hydroxyethyl)-1H-pyrazole-3-carboxamide]
- Biopharmaceutics Classification System (BCS) class [1]: class II

Structure (SMILES): CC(O)c1cc(C(=O)N[C@@H](C)Cn2ccc(-c3ccc(C#N)c(Cl)c3)n2)[nH]n1 (stereo partly drawn) [Crystalline rounded particles sample B unmilled] [darolutamide]
- Specific Surface Area (SSA) Multi-point BET [2]: 12 m^2/g

- Concentration of Darolutamide in saturated solution (0 min, pH 1): 0 µg/mL
- Concentration of Darolutamide in saturated solution (0 min, pH 7.5): 0 µg/mL
- Concentration of Darolutamide in saturated solution (5 min, pH 1): 20 µg/mL
- Concentration of Darolutamide in saturated solution (5 min, pH 7.5): 20 µg/mL
- Concentration of Darolutamide in saturated solution (10 min, pH 1): 20 µg/mL
- Concentration of Darolutamide in saturated solution (10 min, pH 7.5): 21 µg/mL
- Concentration of Darolutamide in saturated solution (60 min, pH 1): 17 µg/mL
- Concentration of Darolutamide in saturated solution (60 min, pH 7.5): 19 µg/mL
- Specific Surface Area (SSA) Multi-point BET [3]: 26.6 m^2/g
Structure (SMILES): CC(O)c1cc(C(=O)N[C@@H](C)Cn2ccc(-c3ccc(C#N)c(Cl)c3)n2)[nH]n1 (stereo partly drawn) [Comparative example 1a, darolutamide]

- Specific Surface Area (SSA) Multi-point BET [3]: 34.4 m^2/g
Structure (SMILES): CC(O)c1cc(C(=O)N[C@@H](C)Cn2ccc(-c3ccc(C#N)c(Cl)c3)n2)[nH]n1 (stereo partly drawn) [Comparative example 1c, darolutamide]

- Concentration of Darolutamide in saturated solution (0 min, pH 1): 0 µg/mL
- Concentration of Darolutamide in saturated solution (0 min, pH 7.5): 0 µg/mL
- Concentration of Darolutamide in saturated solution (5 min, pH 1): 159 µg/mL
- Concentration of Darolutamide in saturated solution (5 min, pH 7.5): 162 µg/mL
- Concentration of Darolutamide in saturated solution (10 min, pH 1): 162 µg/mL
- Concentration of Darolutamide in saturated solution (10 min, pH 7.5): 155 µg/mL
- Concentration of Darolutamide in saturated solution (60 min, pH 1): 117 µg/mL
- Concentration of Darolutamide in saturated solution (60 min, pH 7.5): 132 µg/mL
- Specific Surface Area (SSA) Multi-point BET [3]: 134.0 m^2/g
Structure (SMILES): CC(O)c1cc(C(=O)N[C@@H](C)Cn2ccc(-c3ccc(C#N)c(Cl)c3)n2)[nH]n1 (single isomer, unassigned) [Example 3, darolutamide]

- solubility concentration (5 min): 20 µg/mL
Structure (SMILES): CC(O)c1cc(C(=O)N[C@@H](C)Cn2ccc(-c3ccc(C#N)c(Cl)c3)n2)[nH]n1 (stereo partly drawn) [crystalline rounded particles, darolutamide]

- Specific Surface Area (SSA) Multi-point BET [3]: 29.5 m^2/g
Structure (SMILES): CC(O)c1cc(C(=O)N[C@@H](C)Cn2ccc(-c3ccc(C#N)c(Cl)c3)n2)[nH]n1 (stereo partly drawn) [Comparative example 1b, darolutamide]

- Specific Surface Area (SSA) Multi-point BET [3]: 46.0 m^2/g
Structure (SMILES): CC(O)c1cc(C(=O)N[C@@H](C)Cn2ccc(-c3ccc(C#N)c(Cl)c3)n2)[nH]n1 (stereo partly drawn) [Example 23, darolutamide]

- solubility concentration (5 min): 120 to 160 µg/mL
Structure (SMILES): CC(O)c1cc(C(=O)N[C@@H](C)Cn2ccc(-c3ccc(C#N)c(Cl)c3)n2)[nH]n1 (stereo partly drawn) [nanocrystalline form, N-[(2S)-1-[3-(3-chloro-4-cyanophenyl)-1H-pyrazol-1-yl]-propan-2-yl]-5-(1-hydroxyethyl)-1H-pyrazole-3-carboxamide]
- chemical stability: purity by HPLC versus initial profile at T0 [4]: does not present a significant worsening of the purity
- physical stability: change in crystalline form by XRPD [4]: no signs of transformation into a different crystalline form

- Concentration of Darolutamide in saturated solution (0 min, pH 1): 0 µg/mL
- Concentration of Darolutamide in saturated solution (0 min, pH 7.5): 0 µg/mL
- Concentration of Darolutamide in saturated solution (5 min, pH 1): 23 µg/mL
- Concentration of Darolutamide in saturated solution (5 min, pH 7.5): 22 µg/mL
- Concentration of Darolutamide in saturated solution (10 min, pH 1): 22 µg/mL
- Concentration of Darolutamide in saturated solution (10 min, pH 7.5): 18 µg/mL
- Concentration of Darolutamide in saturated solution (60 min, pH 1): 22 µg/mL
- Concentration of Darolutamide in saturated solution (60 min, pH 7.5): 21 µg/mL
- Specific Surface Area (SSA) Multi-point BET [3]: 11.6 m^2/g
Structure (SMILES): CC(O)c1cc(C(=O)N[C@@H](C)Cn2ccc(-c3ccc(C#N)c(Cl)c3)n2)[nH]n1 (stereo partly drawn) [Comparative example 2, darolutamide]

- Specific Surface Area (SSA) Multi-point BET [3]: 121.6 m^2/g
Structure (SMILES): CC(O)c1cc(C(=O)N[C@@H](C)Cn2ccc(-c3ccc(C#N)c(Cl)c3)n2)[nH]n1 (stereo partly drawn) [Example 10, darolutamide]

Structure (SMILES): CC(O)c1cc(C(=O)N[C@@H](C)Cn2ccc(-c3ccc(C#N)c(Cl)c3)n2)[nH]n1 (stereo partly drawn) [Crystalline rounded particles sample A unmilled] [darolutamide]
- Specific Surface Area (SSA) Multi-point BET [2]: 13 m^2/g

- Concentration of Darolutamide in saturated solution (0 min, pH 1): 0 µg/mL
- Concentration of Darolutamide in saturated solution (0 min, pH 7.5): 0 µg/mL
- Concentration of Darolutamide in saturated solution (5 min, pH 1): 137 µg/mL
- Concentration of Darolutamide in saturated solution (5 min, pH 7.5): 157 µg/mL
- Concentration of Darolutamide in saturated solution (10 min, pH 1): 146 µg/mL
- Concentration of Darolutamide in saturated solution (10 min, pH 7.5): 149 µg/mL
- Concentration of Darolutamide in saturated solution (60 min, pH 1): 113 µg/mL
- Concentration of Darolutamide in saturated solution (60 min, pH 7.5): 109 µg/mL
- Specific Surface Area (SSA) Multi-point BET [3]: 111.7 m^2/g
Structure (SMILES): CC(O)c1cc(C(=O)N[C@@H](C)Cn2ccc(-c3ccc(C#N)c(Cl)c3)n2)[nH]n1 (single isomer, unassigned) [Example 4, darolutamide]

- Concentration of Darolutamide in saturated solution (0 min, pH 1): 0 µg/mL
- Concentration of Darolutamide in saturated solution (0 min, pH 7.5): 0 µg/mL
- Concentration of Darolutamide in saturated solution (5 min, pH 1): 117 µg/mL
- Concentration of Darolutamide in saturated solution (5 min, pH 7.5): 128 µg/mL
- Concentration of Darolutamide in saturated solution (10 min, pH 1): 126 µg/mL
- Concentration of Darolutamide in saturated solution (10 min, pH 7.5): 132 µg/mL
- Concentration of Darolutamide in saturated solution (60 min, pH 1): 113 µg/mL
- Concentration of Darolutamide in saturated solution (60 min, pH 7.5): 109 µg/mL
- Specific Surface Area (SSA) Multi-point BET [3]: 66.8 m^2/g
Structure (SMILES): CC(O)c1cc(C(=O)N[C@@H](C)Cn2ccc(-c3ccc(C#N)c(Cl)c3)n2)[nH]n1 (single isomer, unassigned) [Example 5, darolutamide]

- Specific Surface Area (SSA) Multi-point BET [3]: 66.6 m^2/g
Structure (SMILES): CC(O)c1cc(C(=O)N[C@@H](C)Cn2ccc(-c3ccc(C#N)c(Cl)c3)n2)[nH]n1 (stereo partly drawn) [Example 11, darolutamide]

- solubility concentration (5 min): 20 µg/mL (≈ 50.1 µM)
Structure (SMILES): CC(O)c1cc(C(=O)N[C@@H](C)Cn2ccc(-c3ccc(C#N)c(Cl)c3)n2)[nH]n1 (stereo partly drawn) [Form I, darolutamide]
- Specific Surface Area (SSA) Multi-point BET [2]: 22.1 m^2/g

- Specific Surface Area (SSA) Multi-point BET [3]: 43.8 m^2/g
Structure (SMILES): CC(O)c1cc(C(=O)N[C@@H](C)Cn2ccc(-c3ccc(C#N)c(Cl)c3)n2)[nH]n1 (stereo partly drawn) [Example 24, darolutamide]
